The values below come from PubChem BioAssay AID1259407 (Chemical Carcinogenesis Research Information System (CCRIS), 2018).

This series relates to CCRIS mutagenicity, Ames/micronucleus/aberration tests. Briefly: CCRIS mutagenicity studies.
Setting [1] is: Test System: AMES SALMONELLA TYPHIMURIUM, Strain/Indicator: TA98, Metabolic Activation: NONE, Method: STANDARD PLATE.
[2] abbreviates: Test System: AMES SALMONELLA TYPHIMURIUM, Strain/Indicator: TA98, Metabolic Activation: RAT, LIVER, S-9, AROCLOR 1254, Method: STANDARD PLATE.
The mark [3] stands for this setting: Test System: AMES SALMONELLA TYPHIMURIUM, Strain/Indicator: TA100, Metabolic Activation: NONE, Method: STANDARD PLATE.
[4] abbreviates: Test System: AMES SALMONELLA TYPHIMURIUM, Strain/Indicator: TA100, Metabolic Activation: RAT, LIVER, S-9, AROCLOR 1254, Method: STANDARD PLATE.
Setting [5] is: Test System: AMES SALMONELLA TYPHIMURIUM, Strain/Indicator: TA1538, Metabolic Activation: NONE, Method: STANDARD PLATE.
[6] abbreviates: Test System: AMES SALMONELLA TYPHIMURIUM, Strain/Indicator: TA1538, Metabolic Activation: RAT, LIVER, S-9, AROCLOR 1254, Method: STANDARD PLATE.
Setting [7] is: Test System: AMES SALMONELLA TYPHIMURIUM, Strain/Indicator: TA98, Metabolic Activation: NONE, Method: PREINCUBATION

Active and inactive are the calls of the source. How the calls were made is not given here.

As to `CCCCOc1cc(N=Nc2ccc(NCCO)cc2NCCO)ccc1N=Nc1c(S(=O)(=O)O)cc2ccc(N)cc2c1O`, the mutagenic call is, setting by setting: under setting [1], “inactive; negative”; under setting [2], “active; positive”; under setting [3], “inactive; negative”; under setting [4], “inactive; negative”; under setting [5], “inactive; negative”; under setting [6], “active; positive”.

Consider `Nc1ccc(F)cc1F`, for which the mutagenic call is, setting by setting: (Test System: AMES SALMONELLA TYPHIMURIUM, Strain/Indicator: TA97, Metabolic Activation: HAMSTER, LIVER, S-9, AROCLOR 1254 (10%), Method: PREINCUBATION) “inactive; negative”; (Test System: AMES SALMONELLA TYPHIMURIUM, Strain/Indicator: TA97, Metabolic Activation: HAMSTER, LIVER, S-9, AROCLOR 1254 (30%), Method: PREINCUBATION) “inactive; negative”; (Test System: AMES SALMONELLA TYPHIMURIUM, Strain/Indicator: TA97, Metabolic Activation: NONE, Method: PREINCUBATION) “inactive; negative”; (Test System: AMES SALMONELLA TYPHIMURIUM, Strain/Indicator: TA97, Metabolic Activation: RAT, LIVER, S-9, AROCLOR 1254 (10%), Method: PREINCUBATION) “inactive; negative”; (Test System: AMES SALMONELLA TYPHIMURIUM, Strain/Indicator: TA97, Metabolic Activation: RAT, LIVER, S-9, AROCLOR 1254 (30%), Method: PREINCUBATION) “inactive; negative”; (Test System: AMES SALMONELLA TYPHIMURIUM, Strain/Indicator: TA98, Metabolic Activation: HAMSTER, LIVER, S-9, AROCLOR 1254 (10%), Method: PREINCUBATION) “inactive; negative”. In addition, the mutagenic call is, setting by setting: (Test System: AMES SALMONELLA TYPHIMURIUM, Strain/Indicator: TA98, Metabolic Activation: HAMSTER, LIVER, S-9, AROCLOR 1254 (30%), Method: PREINCUBATION) “active; positive”; under setting [7], “inactive; negative”; (Test System: AMES SALMONELLA TYPHIMURIUM, Strain/Indicator: TA98, Metabolic Activation: RAT, LIVER, S-9, AROCLOR 1254 (10%), Method: PREINCUBATION) “inactive; negative”; (Test System: AMES SALMONELLA TYPHIMURIUM, Strain/Indicator: TA98, Metabolic Activation: RAT, LIVER, S-9, AROCLOR 1254 (30%), Method: PREINCUBATION) “inactive; negative”; (Test System: AMES SALMONELLA TYPHIMURIUM, Strain/Indicator: TA100, Metabolic Activation: HAMSTER, LIVER, S-9, AROCLOR 1254 (5 OR 10%), Method: PREINCUBATION) “inactive; negative”; (Test System: AMES SALMONELLA TYPHIMURIUM, Strain/Indicator: TA100, Metabolic Activation: HAMSTER, LIVER, S-9, AROCLOR 1254 (30%), Method: PREINCUBATION) “active; positive”. Further, the mutagenic call (Test System: AMES SALMONELLA TYPHIMURIUM, Strain/Indicator: TA100, Metabolic Activation: NONE, Method: PREINCUBATION) is “inactive; negative”; the mutagenic call (Test System: AMES SALMONELLA TYPHIMURIUM, Strain/Indicator: TA100, Metabolic Activation: RAT, LIVER, S-9, AROCLOR 1254 (5, 10 OR 30%), Method: PREINCUBATION) was “inactive; negative”; the mutagenic call (Test System: AMES SALMONELLA TYPHIMURIUM, Strain/Indicator: TA1535, Metabolic Activation: HAMSTER, LIVER, S-9, AROCLOR 1254 (10%), Method: PREINCUBATION) was “inactive; negative”; the mutagenic call (Test System: AMES SALMONELLA TYPHIMURIUM, Strain/Indicator: TA1535, Metabolic Activation: HAMSTER, LIVER, S-9, AROCLOR 1254 (30%), Method: PREINCUBATION) is “inactive; negative”; the mutagenic call (Test System: AMES SALMONELLA TYPHIMURIUM, Strain/Indicator: TA1535, Metabolic Activation: NONE, Method: PREINCUBATION) was “inactive; negative”; the mutagenic call (Test System: AMES SALMONELLA TYPHIMURIUM, Strain/Indicator: TA1535, Metabolic Activation: RAT, LIVER, S-9, AROCLOR 1254 (10%), Method: PREINCUBATION) is “inactive; negative”. The mutagenic call (Test System: AMES SALMONELLA TYPHIMURIUM, Strain/Indicator: TA1535, Metabolic Activation: RAT, LIVER, S-9, AROCLOR 1254 (30%), Method: PREINCUBATION) is “inactive; negative”.

With `C=C(C)C(=O)OCCCCOC(=O)C(=C)C`, the mutagenic call under setting [1] is “inactive; negative”; the mutagenic call under setting [2] is “inactive; negative”; the mutagenic call (Test System: AMES SALMONELLA TYPHIMURIUM, Strain/Indicator: TA98, Metabolic Activation: RAT, LIVER, S-9, SODIUM PHENOBARBITAL, Method: STANDARD PLATE) is “inactive; negative”; the mutagenic call under setting [3] was “inactive; negative”; the mutagenic call under setting [4] was “inactive; negative”; the mutagenic call (Test System: AMES SALMONELLA TYPHIMURIUM, Strain/Indicator: TA100, Metabolic Activation: RAT, LIVER, S-9, SODIUM PHENOBARBITAL, Method: STANDARD PLATE) was “inactive; negative”. Moreover, the mutagenic call is “inactive; negative” (Test System: AMES SALMONELLA TYPHIMURIUM, Strain/Indicator: TA1535, Metabolic Activation: NONE, Method: STANDARD PLATE); “inactive; negative” (Test System: AMES SALMONELLA TYPHIMURIUM, Strain/Indicator: TA1535, Metabolic Activation: RAT, LIVER, S-9, AROCLOR 1254, Method: STANDARD PLATE); “inactive; negative” (Test System: AMES SALMONELLA TYPHIMURIUM, Strain/Indicator: TA1535, Metabolic Activation: RAT, LIVER, S-9, SODIUM PHENOBARBITAL, Method: STANDARD PLATE); “inactive; negative” (Test System: AMES SALMONELLA TYPHIMURIUM, Strain/Indicator: TA1537, Metabolic Activation: NONE, Method: STANDARD PLATE); “inactive; negative” (Test System: AMES SALMONELLA TYPHIMURIUM, Strain/Indicator: TA1537, Metabolic Activation: RAT, LIVER, S-9, AROCLOR 1254, Method: STANDARD PLATE); “inactive; negative” (Test System: AMES SALMONELLA TYPHIMURIUM, Strain/Indicator: TA1537, Metabolic Activation: RAT, LIVER, S-9, SODIUM PHENOBARBITAL, Method: STANDARD PLATE). The mutagenic call runs as follows: under setting [5], “inactive; negative”; under setting [6], “inactive; negative”; (Test System: AMES SALMONELLA TYPHIMURIUM, Strain/Indicator: TA1538, Metabolic Activation: RAT, LIVER, S-9, SODIUM PHENOBARBITAL, Method: STANDARD PLATE) “inactive; negative”.

In the case of `CC#CC(OC(=O)NC1CCCCC1)(c1ccccc1)c1ccccc1`, the mutagenic call under setting [3] was “active; positive”.

`CC1(C)CC(O)CC(C)(C)N1[O]`: the mutagenic call is “active; positive” under setting [3]; “inactive; negative” (Test System: AMES SALMONELLA TYPHIMURIUM, Strain/Indicator: TA102, Metabolic Activation: NONE, Method: STANDARD PLATE); “inactive; negative” (Test System: AMES SALMONELLA TYPHIMURIUM, Strain/Indicator: TA102, Metabolic Activation: XANTHINE OXIDASE, Method: STANDARD PLATE); “inactive; negative” (Test System: AMES SALMONELLA TYPHIMURIUM, Strain/Indicator: TA104, Metabolic Activation: NONE, Method: STANDARD PLATE); “inactive; negative” (Test System: AMES SALMONELLA TYPHIMURIUM, Strain/Indicator: TA104, Metabolic Activation: XANTHINE OXIDASE, Method: STANDARD PLATE); “active; positive” (Test System: Mouse lymphoma, Strain/Indicator: L5178Y (tk+/tk-), Metabolic Activation: None, Method: Suspension/plate). Further, where the note is “Test System: Mouse lymphoma, Strain/Indicator: L5178Y (tk+/tk-), Metabolic Activation: Rat, Liver, S-9, Aroclor 1254, Method: Suspension/plate”, the mutagenic call is “active; positive”.

On to `O=[N+]([O-])c1ccc2nc3c([N+](=O)[O-])cccc3nc2c1`, for which the mutagenic call is “active; positive” (Test System: AMES SALMONELLA TYPHIMURIUM, Strain/Indicator: TA98(NR), Metabolic Activation: NONE, Method: PREINCUBATION) and “active; positive” under setting [7].
